Reference: PubChem BioAssay (NCI)
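Dose response: 5 concentrations. Exposure: 48 h. Format: 96-well plates. Endpoint: linear interpolation; highest concentration if not reached. GI50 marks 50% less growth. TGI: concentration producing complete growth inhibition.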

What was measured:
Assay in all cases: NCI tumour cell line growth inhibition, 48 h
SNB-75 CNS = test system: SNB-75 CNS
BT-549 breast = test system: BT-549 breast
DU-145 prostate = test system: DU-145 prostate
SW-620 colon = test system: SW-620 colon
HCT-15 colon = test system: HCT-15 colon
K-562 leukemia = test system: K-562 leukemia
U251 CNS = test system: U251 CNS
OVCAR-3 ovarian = test system: OVCAR-3 ovarian
HT29 colon = test system: HT29 colon
IGROV1 ovarian = test system: IGROV1 ovarian
COLO 205 colon = test system: COLO 205 colon
HCT-116 colon = test system: HCT-116 colon
MDA-MB-435 = test system: MDA-MB-435
UO-31 renal = test system: UO-31 renal
HL-60(TB) leukemia = test system: HL-60(TB) leukemia
HS 578T breast = test system: HS 578T breast
RPMI-8226 leukemia = test system: RPMI-8226 leukemia
ACHN renal = test system: ACHN renal
SK-MEL-28 melanoma = test system: SK-MEL-28 melanoma
T-47D breast = test system: T-47D breast
OVCAR-5 ovarian = test system: OVCAR-5 ovarian
SN12C renal = test system: SN12C renal
NCI-H522 lung = test system: NCI-H522 lung
786-0 renal = test system: 786-0 renal
SK-MEL-5 melanoma = test system: SK-MEL-5 melanoma
SK-OV-3 ovarian = test system: SK-OV-3 ovarian
MDA-MB-231 breast = test system: MDA-MB-231 breast
SNB-19 CNS = test system: SNB-19 CNS
M14 melanoma = test system: M14 melanoma

Cc1ccc(/C(=C/C=C(/C#N)C(N)=O)Sc2ncnn2C)cc1
GI50 (SNB-75 CNS): 15.6 µM
TGI (SNB-75 CNS): 30.8 µM
GI50 (BT-549 breast): 1.84 µM
TGI (BT-549 breast): 9.57 µM
GI50 (DU-145 prostate): 6.61 µM
TGI (DU-145 prostate): 18.2 µM
GI50 (SW-620 colon): 3.87 µM
TGI (SW-620 colon): 15.6 µM
GI50 (HCT-15 colon): 4.96 µM
TGI (HCT-15 colon): 19.9 µM
GI50 (K-562 leukemia): 5.48 µM
TGI (K-562 leukemia): > 100 µM
GI50 (U251 CNS): 3.47 µM
TGI (U251 CNS): 19.1 µM
GI50 (OVCAR-3 ovarian): 5.95 µM
TGI (OVCAR-3 ovarian): 18.1 µM
GI50 (HT29 colon): 13.3 µM
TGI (HT29 colon): 48.6 µM
GI50 (IGROV1 ovarian): 18 µM
TGI (IGROV1 ovarian): > 55.1 µM
GI50 (COLO 205 colon): 15.4 µM
TGI (COLO 205 colon): 35.2 µM
GI50 (HCT-116 colon): 4.57 µM
TGI (HCT-116 colon): 15.3 µM
GI50 (MDA-MB-435): 3.2 µM
TGI (MDA-MB-435): 24.7 µM
GI50 (UO-31 renal): 5.53 µM
TGI (UO-31 renal): > 65.4 µM
GI50 (HL-60(TB) leukemia): 12.3 µM
TGI (HL-60(TB) leukemia): 83 µM
GI50 (HS 578T breast): 20.1 µM
TGI (HS 578T breast): 50.1 µM
GI50 (RPMI-8226 leukemia): 2.4 µM
TGI (RPMI-8226 leukemia): > 22.9 µM
GI50 (ACHN renal): 2.94 µM
TGI (ACHN renal): 14.2 µM
GI50 (SK-MEL-28 melanoma): 14.9 µM
TGI (SK-MEL-28 melanoma): 35.7 µM
GI50 (T-47D breast): 18.7 µM
TGI (T-47D breast): 40.1 µM
GI50 (OVCAR-5 ovarian): 8.89 µM
TGI (OVCAR-5 ovarian): 23.5 µM
GI50 (SN12C renal): 7.89 µM
TGI (SN12C renal): 23.4 µM
GI50 (NCI-H522 lung): 2.6 µM
TGI (NCI-H522 lung): > 52.5 µM
GI50 (786-0 renal): 4.35 µM
TGI (786-0 renal): 10.9 µM
GI50 (SK-MEL-5 melanoma): 6.6 µM
TGI (SK-MEL-5 melanoma): 15.1 µM
GI50 (SK-OV-3 ovarian): 23.1 µM
TGI (SK-OV-3 ovarian): > 62.3 µM
GI50 (MDA-MB-231 breast): 9.57 µM
TGI (MDA-MB-231 breast): 22.9 µM
GI50 (SNB-19 CNS): 22 µM
TGI (SNB-19 CNS): 50.2 µM
GI50 (M14 melanoma): 6.4 µM
